For assay [1], the system named is E. coli. The experiment in a line: Antibiotic susceptibility testing of E. coli growth on photonic microarrays diffraction grating (relative EOT shift over time). The assay is classed as cell-based. The following applies: for Cross comparison of antibiotic effect at the same concentration (type of effect): 5 μg/mL of respective antibiotic, E. coli, FIG. 17; for MIC: Escherichia coli, E. coli proliferation on photonic microarrays diffraction grating, antibiotic introduced at time 0 at increasing concentrations, read-out: MIC (minimal inhibitory concentration) observed from EOT growth curves.
Source text: A SiPA placed in a flow-device having an inlet and an outlet. […] Fluid containing bacteria is introduced through the inlet. Light reflected from the top and bottom of the pores is collected by the optical setup. The phase delay between the incident and the reflected light beams is proportional to the depth (L) of the pores, and the refractive index of the medium filling the pores. The presence of bacterial cells in the pores increase the refractive index of the pores. Thus, the phase delay of the reflected light in the presence of the bacteria differs from the phase delay of the reflected light in the absence of the bacteria, so that analysis of the light collected by the optical setup can provide indication regarding the phenotype of the cells.
The FFT provides the value (2 nL), where L is the average depth of the pores and n is their refractive index. This quantity is also referred to as the Effective Optical Thickness (EOT). The measured shift in the EOT value is a function of the change in the refraction index of the pole: ΔEOT/EOT0=2(Δn/n0)L, where n0 is the refractive index of the pores before the introduction of the bacteria into the pores, Δn is the change in the refractive index as a result of the introduction of the cells into the compartments, and EOT0 is the EOT before introducing the cells into the compartments. Δn is thus correlated with the pore's volume fraction occupied by bacteria cells.
Types of optical kinetic profiles made by bacterial cells on photonic microarrays diffraction grating (e.g., SiPA) include, without limitation, • 1. Bacteria cells are seeded into the pores/structures. Full growth media is supplied to the cells until a growth curve is established. • a. An anti-proliferation drug (bacteriostatic/antibiotics) is added to the media (see FIG. 7) and the correlation of EOT growth curve and drug concentration is analyzed. The MIC (minimal inhibitory concentration) is determined when the EOT shift becomes null. • b. If the drug is later remove from the media (see FIG. 8), the cell growth may resume, if the drug effect is reversible. • c. If the drug is bactericidal or its bacteriostatic effect is irreversible, then the EOT curve will retract as dead cells disintegrate and exit the pores (see FIG. 8). • d. If the growth media if deficient with critical nutrient or factor, then EOT growth curve will decline in relation to the deficiency (see FIG. 9). • 2. Bacteria suspension is introduced to the photonic microarrays diffraction grating under constant flow conditions, in salt buffer solution. • a. If the suspension contains an anti-attachment drug/factor that will affect pore/structure colonization, then correlation of EOT curve and drug concentration can be analyzed (see FIG. 10). • b. Once a stable EOT curve is established, the bacteria suspension is replaced with clean buffer to challenge the bacteria adhesion. If cells are rinsed out of the pores, EOT plot will retract (see FIG. 11).

For assay [2], the system named is E. coli. The experiment in a line: E. coli colonization of SiPA as a function of surface functionality (rate of EOT shift). The settings on record: FIG. 12A. The assay is classed as cell-based. As to the method:
The method includes the continuous or rapid serial monitoring of the light interferometry spectra obtained from a surface with reflective periodic topography (PRT), prior, during and following the controlled introduction of bacterial suspensions to it and/or addition of drugs/substances. Said interferometry spectra is analyzed (for example by fast Fourier transform) to reveal the rate of optical shift, e.g., the time-dependent alterations in the reflected light properties of said PRT, inflicted by the behavior of the cells (for example settling, adhering, migrating or proliferating).
Types of optical kinetic profiles made by bacterial cells on photonic microarrays diffraction grating (e.g., SiPA) include, without limitation, • 1. Bacteria cells are seeded into the pores/structures. Full growth media is supplied to the cells until a growth curve is established. • a. An anti-proliferation drug (bacteriostatic/antibiotics) is added to the media (see FIG. 7) and the correlation of EOT growth curve and drug concentration is analyzed. The MIC (minimal inhibitory concentration) is determined when the EOT shift becomes null. • b. […] If the suspension contains an anti-attachment drug/factor that will affect pore/structure colonization, then correlation of EOT curve and drug concentration can be analyzed (see FIG. 10). • b. […]

`CO/N=C(\C(=O)N[C@@H]1C(=O)N2C(C(=O)O)=C(CSc3nc(=O)c(=O)[nH]n3C)CS[C@H]12)c1csc(N)n1` [Ceftriaxone Sodium]: in the assay on E. coli [1], the “Cross comparison of antibiotic effect at the same concentration (type of effect)” value (“Cross comparison of antibiotic effect” for short) was “bactericidal” and the MIC lay in the range of 0.005 to 0.05 µg/mL.
Regarding `O=C(O)c1cn(C2CC2)c2cc(N3CCNCC3)c(F)cc2c1=O` [Ciprofloxacin], in the assay on E. coli [1], the “Cross comparison of antibiotic effect” value is “bacteriostatic” and the MIC lay in the range of 0.005 to 0.05 µg/mL.
Take `CC(=O)N[C@@H]1[C@@H](O)[C@H](O)[C@@H](CO)O[C@@H]1O` [NAG]: the “Effect of WGA ligand in the suspension on WGA-improved colonization” value in the assay on E. coli [2] (NAG incorporated in the E. coli suspension, WGA-coated SiPA) was “completely eliminate this effect”.
For the molecule `COc1cc(Cc2cnc(N)nc2N)cc(OC)c1OC` [Trimethoprim], in the assay on E. coli [1], the “Cross comparison of antibiotic effect” value is listed as “below the MIC concentration” and the MIC is 5 to 50 µg/mL.
Turning to Wheat-germ agglutinin [WGA], in the assay with E. coli [2] (SiPA coated with WGA), the “Improvement of E. Coli colonization over neat SiO2 or albumin” value was determined as 5 times.

These data come from US10281463B2, “Methods of determining cellular phenotypes” (Technion Research & Development Foundation Limited, priority 2015, dated 2019).
